Test results as given in patent US11452731B2, “Method of treating and preventing loss of cognition” (ENDORECHERCHE, INC., priority 2009, dated 2022).
“And” between values parts separate entries of the source, which are not always exact repeats. Equal values may be shown once.

Experiment: Clinical trial ERC-205: DHEA 50 mg daily versus placebo on hot flushes in postmenopausal women (Example 10)
Assay type: in vivo
Details: for NUMBER OF MODERATE TO SEVERE HOT FLUSHES PER WEEK (MEAN) / WEIGHTED SEVERITY SCORE OF HOT FLUSHES PER WEEK (MEAN) / NUMBER OF ALL HOT FLUSHES PER WEEK (MEAN): 50 mg, strata ≥71 hot flushes per week at screening; for Number of all hot flushes per week, MEAN / Number of moderate to severe hot flushes per week, MEAN / Weighted severity score of hot flushes per week, MEAN / Mean change from baseline: Frequency of all HF / Mean change from baseline: Frequency of moderate-severe HF / Mean change from baseline: Weighted severity score of HF: DHEA 50 mg daily; for number of all hot flushes per week: women having more than 70 mild, moderate plus severe hot flushes
Protocol: Postmenopausal women experiencing moderate or severe hot flushes per week (as determined by a two week diary) were randomized to receive a daily dose of either placebo or 50 mg DHEA. Fifty evaluable participants (25 patients per arm) were treated for four months with a daily assessment of hot flushes recorded in a diary completed by each participant.
Postmenopausal women aged 40 to 70 years with moderate or severe hot flushes per week, as confirmed by a two-week screening hot flush diary were enrolled after signing informed consent. The protocol was approved by the Institutional Review Board (IRB) of Le Centre Hospitalier de l'Université Laval and by Health Canada.
The primary endpoint was the change from Baseline in the weekly frequency of moderate to severe hot flushes at Week 16, after four months of treatment. The objectives also included the change from Baseline in the weekly frequency of all hot flushes and the change from Baseline in the weekly weighted severity score.
The response endpoint is the patient's paper diary which was filled in daily to specify the number and type of hot flushes as follows:
The hot flush diary began as a Screening diary for two weeks prior to randomization whereby patients had to complete the diary daily, recording the number and severity of hot flushes. The patients had to record an average of 50 or more moderate or severe hot flushes per week over the two-week period to be eligible (i.e., at least 100 hot flushes documented on the two week Screening diary).
Once randomized, the patient completed eight, two-week hot flush diaries upon beginning study medication. The diaries had to be filled out on a daily basis. The first diary was completed over the first two weeks and be returned on the two week visit. The second two-week diary was completed over the next two weeks of the first four week treatment period and was returned at the four week visit. At 4, 8, 12 and 16 week visits, two two-week diaries for hot flushes were collected.

[1] = Screening (mean of 2 w), baseline
[2] = women having 71 or more hot flushes per week at screening
[3] = women having between 50 and 70 per week

C[C@]12CC[C@H](O)CC1=CC[C@@H]1[C@@H]2CC[C@]2(C)C(=O)CC[C@@H]12 [DHEA, dehydroepiandrosterone]
NUMBER OF MODERATE TO SEVERE HOT FLUSHES PER WEEK (MEAN) (Week 14): 32.0 | WEIGHTED SEVERITY SCORE OF HOT FLUSHES PER WEEK (MEAN) (Week 14): 96.6 | NUMBER OF ALL HOT FLUSHES PER WEEK (MEAN) (Week 15): 38.8 | NUMBER OF MODERATE TO SEVERE HOT FLUSHES PER WEEK (MEAN) (Week 15): 34.4 | WEIGHTED SEVERITY SCORE OF HOT FLUSHES PER WEEK (MEAN) (Week 15): 103.6 | NUMBER OF ALL HOT FLUSHES PER WEEK (MEAN) (Week 16): 36.3 | NUMBER OF MODERATE TO SEVERE HOT FLUSHES PER WEEK (MEAN) (Week 16): 31.6 | WEIGHTED SEVERITY SCORE OF HOT FLUSHES PER WEEK (MEAN) (Week 16): 95.2 | Number of all hot flushes per week, MEAN [1]: 75.5±4.4 and 75.7 | Number of moderate to severe hot flushes per week, MEAN [1]: 70.7±4.5 and 70.7 | Weighted severity score of hot flushes per week, MEAN [1]: 187.1±13.9 and 187.1 | Number of all hot flushes per week, MEAN (Week 1): 64.2 | Number of moderate to severe hot flushes per week, MEAN (Week 1): 58.6 | Weighted severity score of hot flushes per week, MEAN (Week 1): 156.0 | Number of all hot flushes per week, MEAN (Week 2): 56.4 | Number of moderate to severe hot flushes per week, MEAN (Week 2): 51.0 | Weighted severity score of hot flushes per week, MEAN (Week 2): 137.5 | Number of all hot flushes per week, MEAN (Week 3): 54.6 | Number of moderate to severe hot flushes per week, MEAN (Week 3): 49.1 | Weighted severity score of hot flushes per week, MEAN (Week 3): 132.5 | Mean change from baseline: Frequency of all HF (Week 4): −20.4 | Mean change from baseline: Frequency of moderate-severe HF (Week 4): −20.6 | Mean change from baseline: Weighted severity score of HF (Week 4): −51.4 | Number of all hot flushes per week, MEAN (Week 4): 55.3±5.8 and 55.3 | Number of moderate to severe hot flushes per week, MEAN (Week 4): 50.1±5.7 and 50.1 | Weighted severity score of hot flushes per week, MEAN (Week 4): 135.7 | Number of all hot flushes per week, MEAN (Week 5): 49.8 | Number of moderate to severe hot flushes per week, MEAN (Week 5): 44.4 | Weighted severity score of hot flushes per week, MEAN (Week 5): 120.9 | Number of all hot flushes per week, MEAN (Week 6): 47.9 | Number of moderate to severe hot flushes per week, MEAN (Week 6): 43.0 | Weighted severity score of hot flushes per week, MEAN (Week 6): 115.2 | Number of all hot flushes per week, MEAN (Week 7): 44.5 | Number of moderate to severe hot flushes per week, MEAN (Week 7): 39.6 | Weighted severity score of hot flushes per week, MEAN (Week 7): 108.3 | Mean change from baseline: Frequency of all HF (Week 8): −31.0 | Mean change from baseline: Frequency of moderate-severe HF (Week 8): −30.1 | Mean change from baseline: Weighted severity score of HF (Week 8): −76.9 | Number of all hot flushes per week, MEAN (Week 8): 44.7±6.3 and 44.7 | Number of moderate to severe hot flushes per week, MEAN (Week 8): 40.2±6.1 and 40.2 | Weighted severity score of hot flushes per week, MEAN (Week 8): 109.4 | Number of all hot flushes per week, MEAN (Week 9): 44.3 | Number of moderate to severe hot flushes per week, MEAN (Week 9): 39.6 | Weighted severity score of hot flushes per week, MEAN (Week 9): 106.5 | Number of all hot flushes per week, MEAN (Week 10): 43.1 | Number of moderate to severe hot flushes per week, MEAN (Week 10): 38.6 | Weighted severity score of hot flushes per week, MEAN (Week 10): 104.5 | Number of all hot flushes per week, MEAN (Week 11): 40.9 | Number of moderate to severe hot flushes per week, MEAN (Week 11): 36.0 | Weighted severity score of hot flushes per week, MEAN (Week 11): 98.2 | Mean change from baseline: Frequency of all HF (Week 12): −36.2 | Mean change from baseline: Frequency of moderate-severe HF (Week 12): −35.6 | Mean change from baseline: Weighted severity score of HF (Week 12): −93.6 | Number of all hot flushes per week, MEAN (Week 12): 39.5±5.9 and 39.5 | Number of moderate to severe hot flushes per week, MEAN (Week 12): 34.7±5.8 and 34.7 | Weighted severity score of hot flushes per week, MEAN (Week 12): 92.7 | Number of all hot flushes per week, MEAN (Week 13): 37.5 | Number of moderate to severe hot flushes per week, MEAN (Week 13): 33.2 | Weighted severity score of hot flushes per week, MEAN (Week 13): 90.1 | Number of all hot flushes per week, MEAN (Week 14): 37.6 | Number of moderate to severe hot flushes per week, MEAN (Week 14): 33.3 | Weighted severity score of hot flushes per week, MEAN (Week 14): 90.9 | Number of all hot flushes per week, MEAN (Week 15): 37.5 | Number of moderate to severe hot flushes per week, MEAN (Week 15): 34.0 | Weighted severity score of hot flushes per week, MEAN (Week 15): 91.8 | Mean change from baseline: Frequency of all HF (Week 16): −39.8 | Mean change from baseline: Frequency of moderate-severe HF (Week 16): −38.1 | Mean change from baseline: Weighted severity score of HF (Week 16): −99.1 | Number of all hot flushes per week, MEAN (Week 16): 36.0±5.7 and 36.0 | Number of moderate to severe hot flushes per week, MEAN (Week 16): 32.2±5.8 and 32.2 | Weighted severity score of hot flushes per week, MEAN (Week 16): 87.2±15.8 and 87.2 | reduction of the weighted severity score (all women, week 16 (Table 18)): 99.1±15.6 | decrease in weighted severity score (at 16 weeks): 53.4% | higher efficacy of DHEA than placebo on weighted severity score (at 16 weeks): 3.0 fold | decrease in frequency of all hot flushes (screening to week 16): 52.4% | decrease in number of moderate to severe hot flushes (screening to week 16): 54.5% | decrease in moderate to severe hot flushes [2]: 64.3% | greater inhibition by DHEA than placebo [2]: 65% | mean number of moderate to severe hot flushes per week (women having 71 or more hot flushes per week at screening, after DHEA treatment): 31.6±11.6 | mean number of moderate to severe hot flushes per week (women having 71 or more hot flushes per week at screening, screening value): 88.5±7.1 | decrease in weighted severity score (women having between 50 and 70 hot flushes per week): 43.5% | weighted severity score (women having between 50 and 70 hot flushes per week, screening): 144.3±6.7 | weighted severity score (women having between 50 and 70 hot flushes per week, week 16): 81.6±13.6 | decrease in moderate to severe hot flushes [3]: 43.3% | inhibition by DHEA over the placebo effect [3]: 43% | number of moderate to severe hot flushes per week (women having between 50 and 70 per week, prescreening): 56.7±1.3 | number of moderate to severe hot flushes per week (women having between 50 and 70 per week, week 6 as printed): 32.7±6.2 | decrease in number of all hot flushes (women having more than 70 hot flushes): 60% | decrease in weighted severity score (women having more than 70 hot flushes per week): 61.6% | weighted severity score (women having more than 70 hot flushes per week, screening): 241.6±21.1 | weighted severity score (women having more than 70 hot flushes per week, week 16): 95.2±34.3 | number of all hot flushes per week (prescreening): 91.0±7.0 | number of all hot flushes per week (week 16): 36.3±11.5 | greater efficacy of DHEA than placebo (women having the largest number of hot flushes of all degrees of severity): 50%
